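All cell lines were grown in 96-well plates and treated with compound for 48 hours. At the GI50, growth is halved. TGI is the concentration that stops growth completely.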

Holding throughout (experiment): NCI tumour cell line growth inhibition, 48 h
Assay [1] relates to T-47D breast.
The subject of assay [2] is MOLT-4 leukemia.
The test system of assay [3] is BT-549 breast.
In assay [4] the test system is NCI-H460 lung.
The subject of assay [5] is RPMI-8226 leukemia.
Assay [6] has as its system HL-60(TB) leukemia.
For assay [7], the system named is EKVX NSCLC.
Assay [8] has as its system NCI-H23 lung.
Assay [9] has as its system COLO 205 colon.
Assay [10] concerns SK-OV-3 ovarian.

As for `O=C1/C(=C\c2coc3ccccc3c2=O)c2ccccc2N1c1c(Cl)cccc1Cl`, the GI50 in assay [1] is 3.05 µM; in assay [2] it was 2.98 µM; in [3], 2.83 µM; in assay [4], 2.05 µM; in [5], 1.25 µM; in [6] it was 2.08 µM. The GI50 was 2.82 µM in assay [7], 4.45 µM in assay [8], 3.82 µM in assay [9] and 35.6 µM in assay [10]. Besides, the TGI is 31.1 µM in [1]; over 100 µM in assay [2]; 35.3 µM in [3]; 16.3 µM in assay [4]; 3.95 µM in assay [5]; 87.6 µM in assay [6]. In addition, the TGI was over 100 µM in assay [7], over 100 µM in [8], 36 µM in [9] and over 100 µM in assay [10].

Take `C#COc1cccc(Nc2ncnc3ncc(NC(=O)CCl)cc23)c1`: the GI50 is over 62.5 µM in assay [1]; over 62.5 µM in assay [3]; over 19.8 µM in assay [5]; over 21.2 µM in assay [6]; over 62.5 µM in assay [7]; over 62.5 µM in [8]. Besides, the GI50 in assay [9] is over 26.8 µM; in [10], over 62.5 µM. For the same molecule, the TGI in assay [1] was over 62.5 µM; in [2] it was over 62.5 µM; in assay [3], over 62.5 µM; in assay [4] it was over 62.5 µM; in assay [5], over 62.5 µM; in assay [6] it was over 45 µM. Moreover, the TGI in assay [7], in assay [8], in assay [9] and in assay [10] was over 62.5 µM in each case.

Consider `C#CCNC(=O)CC[C@]1(C)[C@H]2CC[C@@H]3[C@@H]([C@@](C)(O)CCC=C(C)C)CC[C@@]3(C)[C@]2(C)CC[C@H]1C(=C)C`, for which the GI50 in assay [1] is 35 µM; in [2], 17 µM; in [3], 29 µM; in [4], 31.2 µM; in [5], 20.1 µM; in [6] it was 1.19 µM. Further, the GI50 in assay [7] was 47.9 µM; in assay [8], 27.7 µM; in assay [9] it was 31.9 µM; in [10], over 100 µM. The TGI in assay [1] is over 100 µM; in [2], 47.3 µM; in assay [3] it was over 100 µM; in [4], over 100 µM; in assay [5] it was 62.9 µM; in assay [6], 15.9 µM. Further, the TGI in assay [7], in [8], in assay [9] and in [10] was over 100 µM each time.

For the molecule `CCOC(=O)c1c(C)n2c(=O)cc(C)c3c(OC(C)=O)c(OC(C)=O)cc1c32`, the GI50 was 4.08 µM in assay [1]; 3.13 µM in assay [2]; 6.21 µM in assay [3]; 4.01 µM in assay [4]; 2.75 µM in assay [5]; 3.2 µM in assay [6]. The GI50 in assay [7] is 4.96 µM; in [8] it was 4.64 µM; in assay [9], 4.62 µM; in [10] it was 11.8 µM. In addition, the TGI in assay [1] was over 40.9 µM; in [2], over 25.5 µM; in assay [3], 46.1 µM; in assay [4], 18.9 µM; in assay [5], 8.33 µM; in assay [6] it was 12.1 µM. The TGI in assay [7] is 17.8 µM; in [8] it was over 34.7 µM; in assay [9], 18.7 µM; in assay [10], 87.5 µM.

`CC(=O)OC[C@]12CC[C@@H]([C@@H](C)C(N)=O)[C@@H]1[C@H]1CC[C@@H]3[C@@]4(C)CC[C@H](OC(C)=O)C(C)(C)[C@@H]4CC[C@@]3(C)[C@]1(C)CC2`: the GI50 in [1] was 2.91 µM; in assay [2] it was 3.29 µM; in assay [3] it was 8.17 µM; in assay [4], 13.4 µM; in assay [5], 2.63 µM; in [6] it was 2.76 µM. Besides, the GI50 in [7] was 9.27 µM; in assay [8], 9.42 µM; in [9], 4.31 µM; in [10], 13.4 µM. Besides, the TGI in assay [1] turned out to be 12.9 µM; in assay [2], 15.2 µM; in assay [3] it was 22.6 µM; in assay [4], 30.9 µM; in assay [5] it was 12.4 µM; in assay [6], 8.4 µM. For the same molecule, the TGI in assay [7] was 22.5 µM; in [8] it was 33.6 µM; in [9], 25 µM; in [10], 64 µM.

In the case of `COc1ccc(C2=C(c3cc(OC)c(OC)c(OC)c3)C(=O)CC2)cc1`, the GI50 in [1] was 24.6 µM; in [2], 0.405 µM; in assay [3], 0.919 µM; in [4], 0.224 µM; in assay [5], 0.255 µM; in [6], 0.11 µM. The GI50 was 0.699 µM in assay [7], 0.313 µM in [8], 0.218 µM in [9] and 0.179 µM in assay [10]. The TGI in [1] was over 100 µM; in assay [2], over 100 µM; in assay [3] it was over 22.7 µM; in assay [5], 7 µM; in [6], 1.21 µM; in assay [7], over 100 µM. The TGI is over 100 µM in assay [8] and 1.17 µM in assay [9].

Take `COc1ccc(Cc2cnc(NC(=O)c3sc4ccccc4c3Cl)s2)cc1`: the GI50 in assay [1] was 0.768 µM; in [2] it was 0.484 µM; in assay [3] it was 1.18 µM; in [4] it was 0.365 µM; in assay [5], 0.435 µM; in assay [6], 0.256 µM. For the same molecule, the GI50 in assay [7] is 0.48 µM; in assay [8] it was 0.647 µM; in assay [9] it was 0.39 µM; in [10] it was 0.619 µM. Further, the TGI is over 100 µM in [1]; over 100 µM in assay [2]; over 100 µM in assay [3]; over 100 µM in [4]; over 42.7 µM in [5]; 0.642 µM in assay [6]. The TGI in assay [7] is over 100 µM; in assay [8] it was over 100 µM; in assay [9] it was 13.3 µM; in assay [10], over 100 µM.

(Values after PubChem BioAssay (NCI).)
